Reference: PubChem BioAssay AID1259411 (Chemical Carcinogenesis Research Information System (CCRIS), 2018)
Activity calls are given as the source filed them. How the calls were made is not given here.

System: rodent carcinogenicity bioassays, tumor incidence
Experiment: CCRIS carcinogenicity studies
How it was run: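 Archive of carcinogenicity, mutagenicity, tumor promotion and tumor inhibition results drawn from journals, NCI reports and other sources, expert-reviewed; covers 1985-2011 and is no longer updated.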

`C=CC` was tested, and the carcinogen call (Species: MOUSE, Strain/Sex: B6C3F1/FEMALE, Route: INHALATION, Dose: 0, 5000, 10000 PPM IN AIR 6H/D 5D/WK FOR 103 WK (STUDY DURATION: 104 WK), Dose: 0, 5000, 10000 PPM IN AIR 6H/D 5D/WK FOR 103 WK (STUDY DURATION: 104 WK)) was “inactive; negative”, the carcinogen call (Species: MOUSE, Strain/Sex: B6C3F1/MALE, Route: INHALATION, Dose: 0, 5000, 10000 PPM IN AIR 6H/D 5D/WK FOR 103 WK (STUDY DURATION: 104 WK), Dose: 0, 5000, 10000 PPM IN AIR 6H/D 5D/WK FOR 103 WK (STUDY DURATION: 104 WK)) was “inactive; negative” and the carcinogen call (Species: MOUSE, Strain/Sex: SWISS/FEMALE, Route: INHALATION, Dose: 0, 200, 1000, 5000 PPM 7 HR/D, 5D/WK FOR 78 WK (STUDY DURATION: LIFESPAN), Dose: 0, 200, 1000, 5000 PPM 7 HR/D, 5D/WK FOR 78 WK (STUDY DURATION: LIFESPAN)) was “inactive; negative”. The carcinogen call (Species: MOUSE, Strain/Sex: SWISS/MALE, Route: INHALATION, Dose: 0, 200, 1000, 5000 PPM 7 HR/D, 5D/WK FOR 78 WK (STUDY DURATION: LIFESPAN), Dose: 0, 200, 1000, 5000 PPM 7 HR/D, 5D/WK FOR 78 WK (STUDY DURATION: LIFESPAN)) was “inactive; negative”, the carcinogen call (Species: RAT, Strain/Sex: F344/FEMALE, Route: INHALATION, Dose: 0, 5000, 10000 PPM IN AIR 6H/D 5D/WK FOR 103 WK (STUDY DURATION: 104 WK), Dose: 0, 5000, 10000 PPM IN AIR 6H/D 5D/WK FOR 103 WK (STUDY DURATION: 104 WK)) was “inactive; negative” and the carcinogen call (Species: RAT, Strain/Sex: F344/MALE, Route: INHALATION, Dose: 0, 5000, 10000 PPM IN AIR 6H/D 5D/WK FOR 103 WK (STUDY DURATION: 104 WK), Dose: 0, 5000, 10000 PPM IN AIR 6H/D 5D/WK FOR 103 WK (STUDY DURATION: 104 WK)) was “inactive; negative”. For the same compound, the carcinogen call (Species: RAT, Strain/Sex: SPRAGUE-DAWLEY/FEMALE, Route: INHALATION, Dose: 0, 200, 1000, 5000 PPM 7 HR/D, 5D/WK FOR 104 WK (STUDY DURATION: LIFESPAN), Dose: 0, 200, 1000, 5000 PPM 7 HR/D, 5D/WK FOR 104 WK (STUDY DURATION: LIFESPAN)) was “inactive; negative”, the carcinogen call (Species: RAT, Strain/Sex: SPRAGUE-DAWLEY/FEMALE, Route: INHALATION, Dose: 0, 200, 1000, 5000 PPM IN AIR 7 HR/D 5 D/WK FOR 104 WK (STUDY DURATION: LIFETIME), Dose: 0, 200, 1000, 5000 PPM IN AIR 7 HR/D 5 D/WK FOR 104 WK (STUDY DURATION: LIFETIME), Tumor Site: Type of Lesion: [BRAIN WAS ONLY SITE EVALUATED]) was “inactive; negative” and the carcinogen call (Species: RAT, Strain/Sex: SPRAGUE-DAWLEY/MALE, Route: INHALATION, Dose: 0, 200, 1000, 5000 PPM 7 HR/D, 5D/WK FOR 104 WK (STUDY DURATION: LIFESPAN), Dose: 0, 200, 1000, 5000 PPM 7 HR/D, 5D/WK FOR 104 WK (STUDY DURATION: LIFESPAN)) was “inactive; negative”. The carcinogen call (Species: RAT, Strain/Sex: SPRAGUE-DAWLEY/MALE, Route: INHALATION, Dose: 0, 200, 1000, 5000 PPM IN AIR 7 HR/D 5 D/WK FOR 104 WK (STUDY DURATION: LIFETIME), Dose: 0, 200, 1000, 5000 PPM IN AIR 7 HR/D 5 D/WK FOR 104 WK (STUDY DURATION: LIFETIME), Tumor Site: Type of Lesion: [BRAIN WAS ONLY SITE EVALUATED]) was “inactive; negative”.

In the case of `CCCCN(N=O)C1CCC(=O)O1` (stereo not drawn), the carcinogen call (Species: RAT, Strain/Sex: F344/MALE, Route: SUBCUTANEOUS, Dose: 38 UMOL/KG IN OLIVE OIL 1/WK FOR 10 WK, Tumor Site: Type of Lesion: INJECTION SITE: MALIGNANT FIBROUS HISTIOCYTOMA, LUNG: ADENOMA) is reported as “active; positive”.

With `ClCc1ccccc1` the carcinogen call (Species: MOUSE, Strain/Sex: B6C3F1/FEMALE, Route: ORAL (GAVAGE), Dose: 0, 50, 100 MG/KG BW 3 X A WK FOR 2 YRS (TEST MATERIAL SOLVENT: CORN OIL), Dose: 0, 50, 100 MG/KG BW 3 X A WK FOR 2 YRS (TEST MATERIAL SOLVENT: CORN OIL), Tumor Site: Type of Lesion: FORESTOMACH: CARCINOMA AND PAPILLOMA, LUNG: ALVEOLAR-BRONCHIOLAR ADENOMA OR CARCINOMA (HIGH DOSE ONLY, P=0.053)) was “active; positive”, the carcinogen call (Species: MOUSE, Strain/Sex: B6C3F1/MALE, Route: ORAL (GAVAGE), Dose: 0, 50, 100 MG/KG BW 3 X A WK FOR 2 YRS (TEST MATERIAL SOLVENT: CORN OIL), Dose: 0, 50, 100 MG/KG BW 3 X A WK FOR 2 YRS (TEST MATERIAL SOLVENT: CORN OIL), Tumor Site: Type of Lesion: FORESTOMACH: CARCINOMA AND PAPILLOMA, LIVER: CARCINOMA OR ADENOMA (LOWER DOSE ONLY), CIRCULATORY SYSTEM: HEMANGIOMA OR H, Tumor Site: Type of Lesion: FORESTOMACH: CARCINOMA AND PAPILLOMA, LIVER: CARCINOMA OR ADENOMA (LOWER DOSE ONLY), CIRCULATORY SYSTEM: HEMANGIOMA OR H) was “active; positive” and the carcinogen call (Species: RAT, Route: SUBCUTANEOUS, Tumor Site: Type of Lesion: INJECTION SITE) was “active; positive”. The carcinogen call (Species: RAT, Strain/Sex: F344/FEMALE, Route: ORAL (GAVAGE), Dose: 0, 15, 30 MG/KG BW 3 X A WK FOR 2 YRS (TEST MATERIAL SOLVENT: CORN OIL), Dose: 0, 15, 30 MG/KG BW 3 X A WK FOR 2 YRS (TEST MATERIAL SOLVENT: CORN OIL), Tumor Site: Type of Lesion: THYROID: C-CELL NEOPLASMS) was “active; positive” and the carcinogen call (Species: RAT, Strain/Sex: F344/MALE, Route: ORAL (GAVAGE), Dose: 0, 15, 30 MG/KG BW 3 X A WK FOR 2 YRS (TEST MATERIAL SOLVENT: CORN OIL), Dose: 0, 15, 30 MG/KG BW 3 X A WK FOR 2 YRS (TEST MATERIAL SOLVENT: CORN OIL)) was “inactive; negative”.

For `OC[C@H]1O[C@H](O[C@]2(CCl)O[C@H](CCl)[C@@H](O)[C@@H]2O)[C@H](O)[C@@H](O)[C@H]1Cl`, the carcinogen call (Species: MOUSE, Strain/Sex: CD-1/FEMALE, Route: ORAL, Dose: 0, 3000, 10,000, 30,000 PPM IN DIET FOR 104 WK (STUDY DURATION: 104 WK), Dose: 0, 3000, 10,000, 30,000 PPM IN DIET FOR 104 WK (STUDY DURATION: 104 WK)) was “inactive; negative”, the carcinogen call (Species: MOUSE, Strain/Sex: CD-1/MALE, Route: ORAL, Dose: 0, 3000, 10,000, 30,000 PPM IN DIET FOR 104 WK (STUDY DURATION: 104 WK), Dose: 0, 3000, 10,000, 30,000 PPM IN DIET FOR 104 WK (STUDY DURATION: 104 WK)) was “inactive; negative” and the carcinogen call (Species: RAT, Strain/Sex: SPRAGUE-DAWLEY/FEMALE, Route: ORAL, Dose: 0, 0.3, 1.0, 3.0% IN DIET FOR 104 WK (STUDY DURATION: 104 WK), Dose: 0, 0.3, 1.0, 3.0% IN DIET FOR 104 WK (STUDY DURATION: 104 WK)) was “inactive; negative”. For the same compound, the carcinogen call (Species: RAT, Strain/Sex: SPRAGUE-DAWLEY/MALE, Route: ORAL, Dose: 0, 0.3, 1.0, 3.0% IN DIET FOR 104 WK (STUDY DURATION: 104 WK), Dose: 0, 0.3, 1.0, 3.0% IN DIET FOR 104 WK (STUDY DURATION: 104 WK)) was “inactive; negative”.

For `NC(=O)N(CCO)N=O`, the carcinogen call (Species: HAMSTER, Strain/Sex: SYRIAN/FEMALE, Route: GAVAGE, Dose: 0, 14 MG/ML ((0.2 ML OF A SOLUTION IN ETHYL ACETATE/CORN OIL (1:2)) 1/WK FOR 22 WK (STUDY DURATION: LIFE SPAN), Tumor Site: Type of Lesion: LIVER: HEMANGIOSARCOMA, SPLEEN: HEMANGIOSARCOMA) was “active; positive”, the carcinogen call (Species: HAMSTER, Strain/Sex: SYRIAN/MALE, Route: GAVAGE, Dose: 0, 14 MG/ML ((0.2 ML OF A SOLUTION IN ETHYL ACETATE/CORN OIL (1:2)) 1/WK FOR 22 WK (STUDY DURATION: 20 WK), Tumor Site: Type of Lesion: LIVER: HEMANGIOSARCOMA, PANCREAS: CARCINOMA OR ADENOMA, SPLEEN: HEMANGIOSARCOMA, FORESTOMACH: SQUAMOUS CELL CARCINOMA OR, Tumor Site: Type of Lesion: LIVER: HEMANGIOSARCOMA, PANCREAS: CARCINOMA OR ADENOMA, SPLEEN: HEMANGIOSARCOMA, FORESTOMACH: SQUAMOUS CELL CARCINOMA OR) was “active; positive” and the carcinogen call (Species: RAT, Strain/Sex: F344/MALE, Route: GAVAGE, Dose: 0, 2.4 MG IN 0.2 ML ETHYL ACETATE/CORN OIL (1:1) 2/WK FOR 30 WK (TOTAL DOSE: 168 MG) (STUDY DURATION: 80 WK), Tumor Site: Type of Lesion: LUNG: CARCINOMA OR ADENOMA, THYROID: CARCINOMA OR ADENOMA) was “active; positive”.
